According to ChEMBL document CHEMBL1201862, “PubChem BioAssay data set” (2004):
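In this assay, cells in 96-well plates receive the compound at five concentrations for 48 hours. Endpoints are linearly interpolated between the surrounding concentrations. Here, GI50 denotes the concentration required for 50% inhibition of growth.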 Activity calls are given as the source filed them. Cut-off read from the data, not from the text of the source: active = GI50 up to about 1.1 µM and inactive = higher.

Key:
Experiment in all cases: NCI-60 cell line screen, 48 h
SK-MEL-5 = system: SK-MEL-5
NCI-H23 = system: NCI-H23
OVCAR-4 = system: OVCAR-4
MDA-MB-231 = system: MDA-MB-231
SK-OV-3 = system: SK-OV-3
HCC 2998 = system: HCC 2998
COLO 205 = system: COLO 205
BT-549 = system: BT-549
U-251 = system: U-251
CAKI-1 = system: CAKI-1
NCI-H522 = system: NCI-H522
OVCAR-3 = system: OVCAR-3
MDA-N = system: MDA-N
UACC-62 = system: UACC-62
Hs-578T = system: Hs-578T
A549 = system: A549
SNB-19 = system: SNB-19
KM12 = system: KM12
HCT-116 = system: HCT-116
MOLT-4 = system: MOLT-4

Row | Compound | GI50 (SK-MEL-5) | GI50 (NCI-H23) | GI50 (OVCAR-4) | GI50 (MDA-MB-231) | GI50 (SK-OV-3) | GI50 (HCC 2998) | GI50 (COLO 205) | GI50 (BT-549) | GI50 (U-251) | GI50 (CAKI-1) | GI50 (NCI-H522) | GI50 (OVCAR-3) | GI50 (MDA-N) | GI50 (UACC-62) | GI50 (Hs-578T) | GI50 (A549) | GI50 (SNB-19) | GI50 (KM12) | GI50 (HCT-116) | GI50 (MOLT-4)
1 | C[C@]12CC[C@H](O)C=C1CC[C@@H]1[C@@H]2CC[C@]2(C)C(=N/O)/C(=C/c3ccncc3)C[C@@H]12 | 5.01 µM (inactive) | 16.1 µM (inactive) | 10.1 µM (inactive) | 11.1 µM (inactive) | 15.6 µM (inactive) | 3.84 µM (inactive) | 11.7 µM (inactive) | 20 µM (inactive) | 6.64 µM (inactive) | 14.9 µM (inactive) | 9.35 µM (inactive) | 5.53 µM (inactive) | 9.51 µM (inactive) | 5.98 µM (inactive) | 19.4 µM (inactive) | 5.19 µM (inactive) | 11.9 µM (inactive) | 8 µM (inactive) | 5 µM (inactive) | 4.43 µM (inactive)
2 | C=COC(=O)N[C@H]1CCc2cc(OC)c(OC)c(OC)c2-c2ccc(SC)c(=O)cc21 | < 0.01 µM (active) | < 0.01 µM (active) | 4.97 µM (inactive) | < 0.01 µM (active) | 0.0255 µM (active) | < 0.01 µM (active) | < 0.01 µM (active) | < 0.01 µM (active) | < 0.01 µM (active) | < 0.01 µM (active) | < 0.01 µM (active) | < 0.01 µM (active) | < 0.01 µM (active) | < 0.01 µM (active) | < 0.01 µM (active) | < 0.01 µM (active) | 0.0101 µM (active) | < 0.01 µM (active) | < 0.01 µM (active) | < 0.01 µM (active)
3 | CC(C)CC(NC(=O)OC(C)(C)C)C(=O)Nc1ccc(Nc2nc(F)nc(-c3c4ccccc4cn3C)n2)cc1 (configuration not stated) | > 100 µM (inactive) | 62.5 µM (inactive) | > 41.8 µM (inactive) | 66.1 µM (inactive) | > 100 µM (inactive) | 15.8 µM (inactive) | 18.6 µM (inactive) | > 100 µM (inactive) | 43.9 µM (inactive) | > 100 µM (inactive) | 75.3 µM (inactive) | 22.5 µM (inactive) | > 100 µM (inactive) | > 100 µM (inactive) | 40.3 µM (inactive) | > 100 µM (inactive) | > 86.1 µM (inactive) | 12.6 µM (inactive) | 72.1 µM (inactive) | 59.7 µM (inactive)
4 | O=C1Nc2ccccc2C1S(=O)(=O)c1ccccc1 (configuration not stated) | > 100 µM (inactive) | > 100 µM (inactive) | > 100 µM (inactive) | > 100 µM (inactive) | > 100 µM (inactive) | > 100 µM (inactive) | > 100 µM (inactive) | > 100 µM (inactive) | > 100 µM (inactive) | > 100 µM (inactive) | > 100 µM (inactive) | > 100 µM (inactive) | > 100 µM (inactive) | > 100 µM (inactive) | > 100 µM (inactive) | > 100 µM (inactive) | > 100 µM (inactive) | > 100 µM (inactive) | > 100 µM (inactive) | > 100 µM (inactive)
5 | CSC1(SC)N2Cc3ccccc3N=C2C1(c1ccccc1)c1ccccc1 | 11.4 µM (inactive) | 16 µM (inactive) | 10.1 µM (inactive) | 26.7 µM (inactive) | > 54.5 µM (inactive) | 2.6 µM (inactive) | 5.89 µM (inactive) | > 50.6 µM (inactive) | 15.1 µM (inactive) | 11 µM (inactive) | 5.96 µM (inactive) | 6.4 µM (inactive) | 12.5 µM (inactive) | 12.6 µM (inactive) | 29 µM (inactive) | 13.8 µM (inactive) | > 48.3 µM (inactive) | 7.73 µM (inactive) | 6.18 µM (inactive) | 2.77 µM (inactive)
6 | Nc1nc(-c2ccc3ccccc3c2)cc(-c2cc(-c3ccc4ccccc4c3)nc(N)n2)n1 | > 100 µM (inactive) | > 100 µM (inactive) | > 100 µM (inactive) | > 100 µM (inactive) | > 100 µM (inactive) | > 100 µM (inactive) | > 100 µM (inactive) | > 100 µM (inactive) | > 100 µM (inactive) | > 100 µM (inactive) | > 100 µM (inactive) | > 100 µM (inactive) | > 100 µM (inactive) | > 100 µM (inactive) | > 100 µM (inactive) | > 100 µM (inactive) | > 100 µM (inactive) | > 100 µM (inactive) | > 100 µM (inactive) | > 100 µM (inactive)
7 | CC1CC2(OC2C)C(=O)OC2CCN(C)C/C=C(/COC(=O)C1(C)O)C2=O (configuration not stated) | > 100 µM (inactive) | > 100 µM (inactive) | > 100 µM (inactive) | > 100 µM (inactive) | > 100 µM (inactive) | > 100 µM (inactive) | > 100 µM (inactive) | > 100 µM (inactive) | > 100 µM (inactive) | > 100 µM (inactive) | > 100 µM (inactive) | > 100 µM (inactive) | > 100 µM (inactive) | > 100 µM (inactive) | > 100 µM (inactive) | > 100 µM (inactive) | > 100 µM (inactive) | > 100 µM (inactive) | > 100 µM (inactive) | > 10 µM (inactive)
8 | COc1ccc(C2CC(c3c(O)ccc4ccccc34)=NN2c2ccc([N+](=O)[O-])cc2[N+](=O)[O-])cc1OC (configuration not stated) | 10.1 µM (inactive) | 6.82 µM (inactive) | 16.6 µM (inactive) | 20.9 µM (inactive) | 26.4 µM (inactive) | 28.5 µM (inactive) | 22.3 µM (inactive) | 30 µM (inactive) | 17.6 µM (inactive) | 16.9 µM (inactive) | 2.46 µM (inactive) | 12.1 µM (inactive) | 28.9 µM (inactive) | 15.3 µM (inactive) | 19.4 µM (inactive) | 17.1 µM (inactive) | 15.3 µM (inactive) | 13.2 µM (inactive) | 15.8 µM (inactive) | 4.78 µM (inactive)
9 | N#CNC(=N)Nc1ccc(Cl)cc1 | > 100 µM (inactive) | > 100 µM (inactive) | > 100 µM (inactive) | > 100 µM (inactive) | > 100 µM (inactive) | > 100 µM (inactive) | > 100 µM (inactive) | > 100 µM (inactive) | > 100 µM (inactive) | > 100 µM (inactive) | > 100 µM (inactive) | > 100 µM (inactive) | > 100 µM (inactive) | > 100 µM (inactive) | > 100 µM (inactive) | > 100 µM (inactive) | > 100 µM (inactive) | > 100 µM (inactive) | > 100 µM (inactive) | 36.4 µM (inactive)
10 | COC(=O)c1ccccc1C1CN=NC12Cc1c(C)cccc1C2=O (configuration not stated) | 90.2 µM (inactive) | > 100 µM (inactive) | > 100 µM (inactive) | > 100 µM (inactive) | > 100 µM (inactive) | > 100 µM (inactive) | > 100 µM (inactive) | > 100 µM (inactive) | 80.7 µM (inactive) | > 100 µM (inactive) | > 100 µM (inactive) | > 100 µM (inactive) | > 100 µM (inactive) | > 100 µM (inactive) | > 100 µM (inactive) | 61.5 µM (inactive) | > 100 µM (inactive) | > 100 µM (inactive) | 69.2 µM (inactive) | 69.5 µM (inactive)
11 | O=C(O[C@@H](/C=C/c1ccccc1)P1(=O)N(Cc2ccccc2)[C@@H]2CCCC[C@H]2N1Cc1ccccc1)c1ccccc1 | 1.99 µM (inactive) | 2.64 µM (inactive) | 1.88 µM (inactive) | 2.96 µM (inactive) | 5.92 µM (inactive) | 7.93 µM (inactive) | 2 µM (inactive) | 4.91 µM (inactive) | 3.21 µM (inactive) | 1.48 µM (inactive) | 4.54 µM (inactive) | 5.07 µM (inactive) | 3.33 µM (inactive) | 3.8 µM (inactive) | 8.89 µM (inactive) | 3.07 µM (inactive) | 4.54 µM (inactive) | 2.83 µM (inactive) | 2.61 µM (inactive) | 
12 | COC(=O)CCC(C)[C@H]1CCC2C3C(C[C@H](OC(C)=O)[C@@]21C)[C@@]1(C)CCC2(C[C@H]1C[C@H]3OC(C)=O)OOC1(CCCC1)OO2 (some centres not stated) | 20.2 µM (inactive) | 9.18 µM (inactive) | 12.6 µM (inactive) | 43.3 µM (inactive) | > 100 µM (inactive) | > 100 µM (inactive) | 30.4 µM (inactive) | 46 µM (inactive) | 8.93 µM (inactive) | 12.2 µM (inactive) | 23.4 µM (inactive) | 5.56 µM (inactive) | 32.4 µM (inactive) |  | 16.5 µM (inactive) | 12.9 µM (inactive) | > 100 µM (inactive) | 23.3 µM (inactive) | 6.43 µM (inactive) | 4.28 µM (inactive)
13 | Cc1c(Cl)cc(C(C)(C)C)c(O)c1Cc1c(C)c(Cl)cc(C(C)(C)C)c1O | 0.762 µM (active) | 0.656 µM (active) | 1.26 µM (inactive) | 1.65 µM (inactive) | 2.98 µM (inactive) | 0.796 µM (active) | 1.12 µM (active) | 2.81 µM (inactive) | 1.51 µM (inactive) | 1.32 µM (inactive) | 0.299 µM (active) | 0.436 µM (active) | 2.18 µM (inactive) | 1.62 µM (inactive) | 0.635 µM (active) | 0.804 µM (active) | 1.8 µM (inactive) | 1.44 µM (inactive) | 0.536 µM (active) | 0.818 µM (active)
14 | CS(=O)(=O)Nc1ccc2ccccc2c1-c1c(NS(C)(=O)=O)ccc2ccccc12 | > 25 µM (inactive) | > 25 µM (inactive) | > 25 µM (inactive) | > 25 µM (inactive) | > 25 µM (inactive) | > 25 µM (inactive) | > 25 µM (inactive) | > 25 µM (inactive) | > 25 µM (inactive) | > 25 µM (inactive) | > 25 µM (inactive) | > 25 µM (inactive) | > 25 µM (inactive) |  | > 25 µM (inactive) | > 25 µM (inactive) | > 25 µM (inactive) | > 25 µM (inactive) | > 18.6 µM (inactive) | > 25 µM (inactive)
